Measurements from US20250213550A1, “COMPOUNDS AND METHODS FOR TREATING INFLAMMATORY BOWEL DISEASE” (Gilead Sciences, Inc., priority 2023, published 2025).
Read-outs that look alike come from different tables or passages of the source.

Assay: Food effect on Compound A plasma PK after single dose Compound 1 600 mg
Format: in vivo, human
Details: for Tmax: 600 mg, read-out: median Tmax
Description: A Phase 1, open-label, single-center, multiple-cohort study was conducted to evaluate the effect of a mixed OATP/P-gp inhibitor (cyclosporine A; CsA) or food on the PK of Compound 1, the effect of Compound 1 on the PK of midazolam (MDZ), the effect of Compound 1 on the PK of OATP/CYP3A/BCRP substrates using atorvastatin (ATV), pravastatin (PRA), and rosuvastatin (ROS), and the effect of Compound 1 on the PK of a representative combined oral contraceptive (drospirenone/ethinyl estradiol; DRSP/EE), in healthy participants. 70 participants ages 18 to 55 years (inclusive) and having BMI of ≥18.0 kg/m^2 and ≤30.0 kg/m^2 were enrolled. For Cohorts 1-3, there were an approximately even distribution of healthy participants assigned male at birth and nonpregnant, nonlactating participants assigned female at birth. Cohort 4 included only healthy, nonpregnant, nonlactating participants assigned female at birth.
Participants in Cohort 1 were randomized to 1 of 2 treatment sequences (ABC or BAC), in a 1:1 ratio.
Treatment A: Single dose of Compound 1 600 mg, administered in the AM, under fasted conditions
Treatment B: Single dose of Compound 1 600 mg, administered in the AM, within 5 minutes of completing a high-fat/high-calorie meal
• Periods 1, 2, and 3: Day 1, 0 (pre-dose, ≤5 min before dose), 0.25, 0.5, 1, 1.5, 2, 3, 4, 6, 8, 12, 18, 24, 36, 48, 72, and 96 hours post-dose; and at the early termination (ET) visit, as applicable
Concentrations of Compound 1 and its active metabolites Compound A and Compound B, MDZ and its metabolite 1-OH-MDZ, ATV and its metabolite 2-OH-ATV, PRA, ROS, DRSP, and EE in plasma PK samples were determined by validated high performance liquid chromatography tandem mass spectrometry (LC-MS/MS) bioanalytical methods.
Pharmacokinetic parameters were determined for Compound 1 and its metabolites for all cohorts, MDZ and 1-OH-MDZ for Cohort 2; ATV, 2-OH-ATV, PRA, and ROS for Cohort 3; and DRSP and EE for Cohort 4.

[1] = Compound 1 600 mg single dose, vs fasting

Cn1ccc2c([C@H](Nc3cc(Cl)c4ncc(C#N)c(NCC(C)(C)C)c4c3)c3cn(C45CC(C4)C5)nn3)cccc2c1=O [Compound A]
change in Cmax by high-fat/high-calorie meal [1]: no change | increase of AUCinf by high-fat/high-calorie meal [1]: 92% | Tmax (both sexes, human, plasma, oral, Compound 1 600 mg single dose, fasting): 4 h | Tmax (both sexes, human, plasma, oral, Compound 1 600 mg single dose, with a high-fat/high-calorie meal): 5 h | AUC(0-inf) (both sexes, human, plasma, oral, Cpd 1 600 mg single dose, fasting, Treatment A, mean): 46300 ng·h/mL | AUCinf % GLSM Ratio (non-fasting (test) vs fasting (reference), Cpd 1 600 mg): 192%
